Source: patent publication US20150141375A1 (priority 2009, published 2015)
Entries after “also recorded” stand apart in the source; their conditions may differ.

Tests used:
[1] = system: Adenovirus; test: In vitro activity against Adenovirus (HFF; AdV 5); assay type: cell-based; conditions: unidentified adenovirus
[2] = system: HCMV(AD169); test: In vitro potency against dsDNA viruses: HCMV; assay type: cell-based; conditions: Human betaherpesvirus 5, AD169, MRC5; MRC-5
[3] = system: BKV(Dunlop); conditions: RPTECs, same test system (Bernhoff et al., 2008), cited from earlier work
[4] = system: Vaccinia Virus; test: microbe, parasite or virus in culture; assay type: cell-based; conditions: Orthopoxvirus vaccinia, HFF
[5] = Safety and pharmacokinetics of CMX001 in healthy volunteers; assay type: in vivo, human; conditions: blood, Human, analyte = label
Experimental: An initial study was conducted to evaluate the safety and pharmacokinetics of CMX001 in healthy volunteers. The study consisted of a single dose arm (SD) and a multiple dose arm (MD). In the single dose arm 7 cohorts of 6 subjects were treated (4 subjects received active drug and 2 placebo). Enrollment was staggered as 2 subjects (one active, one placebo) followed by 4 subjects (Groups A and B). The estimated single doses for the two highest doses treated for a […] subject were 40 mg (0.6 mg/kg cohort 6) and 70 mg (1 mg/kg cohort 7). In the multiple dose arm, cohort 6MD received 0.1 mg/kg on Day 0, 6 and 12; Cohort 7MD received 0.2 mg/kg on Day 0, 6 and 12. Levels of cidofovir, CMX001 and CMX064 (major metabolite) were measured in blood and urine of subjects during the course of the study. Gastrointestinal (GI) monitoring of the subjects included (a) monitoring for clinical signs of GI adverse events, (b) monitoring for clinical symptoms using a visual Analog Scale, (c) monitoring for appetite loss/anorexia, nausea, vomiting, diarrhea, constipation and intestinal gas/bloating, (d) laboratory tests for fecal occult blood; serum electrolytes, urine specific gravity, BUN/creatinine ratio; serum albumin, and lipids, and (e) diagnostic studies (the Wireless capsule endoscopy (PillCam®, Given Imaging)).

[6] = system: BK Virus; test: In vitro potency against BK Virus in WI-38 cells; assay type: cell-based; conditions: Betapolyomavirus hominis, WI-38
[7] = Vistide 5 mg/kg with probenecid; cited from earlier work
[8] = system: HSV-1; test: microbe, parasite or virus in culture; assay type: cell-based
[9] = system: SVG cells; test: SVG cell viability / cell number (MTS, alamar blue, hematoxylin); assay type: cell-based, human
Experimental: Quantification of cell viability using the MTS [3-(4,5-dimethylthiazol-2-yl)-5-(3-carboxymethoxyphenyl)-2-(4-sulfophenyl)-2H-tetrazolium] assay is based on bioactivity of mitochondrial dehydrogenase in living cells, which converts colorless tetrazolium salt to a colored formazan. MTS assays were performed according to manufacturer's instructions (Promega, Madison Wis.). Briefly, culture medium was removed from cells and 50 μL of PBS was added into each well of a 96 well plate. Ten μL of MTS reagent were added to wells of cells, and to a well without cells to determine background. Mixtures were incubated at 37° C. for 2 hours and the absorbance was measured at 490 nm. Trypan blue staining was performed on identical cultures to correlate MTS values with cell viability. The final values indicated are the result from 3 replicates. The value for the non-treated control was set to 100% and all other values are represented as a percentage of the control. Alamar blue (AB) assay.
Quantification of cell viability using the alamar blue (AB) assay was performed according to the manufacturer's instructions (Invitrogen, Gaithersburg, Md.). Briefly, 10 μL of AB reagent was added to each well of a 96 well dish containing cells or without cells to determine background. Mixtures were incubated at 37° C. for 6 hours and the absorbance measured at 570 nm using 600 nm as a reference wavelength. The value for the non-treated control was set to 100% and all other values are represented as a percentage of the control.
Because cell density in cultures processed for in situ DNA hybridization could not be measured by MTS or AB assays, cell density was approximated in cell cultures processed by quantifying hematoxylin staining intensity. Coverslips containing cells were prepared for in situ DNA hybridization and co-stained with hematoxylin. Subsequently, each coverslip was scanned and the hematoxylin intensities quantified using ImageJ. To determine the total cell number per coverslip, images were acquired at 10 random positions at 100× magnification. Cells were counted throughout each image and the average cell number per slide was generated by averaging counts from the 10 images for each experimental group. Exactly 900 images at 100× magnification cover the surface of an 18 mm×18 mm coverslip.

[10] = system: EBV; test: In vitro potency against dsDNA viruses: EBV; assay type: cell-based; conditions: human gammaherpesvirus 4; Dardi
[11] = system: HSV-2; test: In vitro efficacy against HSV-2 strains in HFF (CPE, plaque reduction); assay type: cell-based
From the text: In vitro screening by CPE assay in human foreskin fibroblast (HFF) cells with confirmation using plaque reduction assays in HFF.

[12] = system: Mad-4 JCV; test: JCV (Mad-4) initial infection of SVG cells (in situ DNA hybridization, qPCR)
[13] = system: HSV-1; test: In vitro potency against dsDNA viruses: HSV-1; assay type: cell-based; conditions: Human alphaherpesvirus 1, MRC5; MRC-5
[14] = system: JC; test: In vitro potency against dsDNA viruses: JC; assay type: cell-based, JC virus; conditions: JC polyomavirus
[15] = PK comparison, mouse; assay type: in vivo; conditions: 2 mg/kg, calculated from doses of 2 and 10 mg/kg, analyte = label, after CMX001
From the text: (§1) Table 4 illustrates the PK comparison of CMX001 with CMX021 and CMX064 for mouse, rabbit and human.

[16] = system: HPV 18; test: In vitro potency against dsDNA viruses: HPV 18; assay type: cell-based; conditions: HeLa
[17] = system: CMV; conditions: person with renal failure, all observed time points after CMX001
[18] = system: HHV-6; test: In vitro potency against dsDNA viruses: HHV-6; assay type: cell-based; conditions: HSB2; HSB-2
[19] = system: Variola major; test: organism not typed; assay type: cell-based; conditions: Vero 76
[20] = system: HPV 11; test: In vitro potency against dsDNA viruses: HPV 11; assay type: cell-based; conditions: A-431; A431
[21] = system: HCMV (AD169); test: HCMV real time array of viral transcripts; assay type: cell-based; conditions: CDV 50 μM, GCV 15 μM, CMX001 0.5 μM; ANOVA P<0.05
[22] = PK comparison, rabbit; conditions: in vivo, 2 mg/kg, calculated from doses of 5 and 10 mg/kg, analyte = label, after CMX001
From the text: as §1

## Nc1ccn(C[C@@H](CO)OCP(=O)(O)O)c(=O)n1 [Cidofovir, cidofovir, reference compound]
[1]
  IC50: 1.3 µM
[1]; HFF
  EC50: 1.3 µM
[2]
  EC50: 0.38 µM
[3]
  IC-90 of CDV, BKV replication: 40 µg/mL
[3]; read-out: IC-90 of CDV, BKV replication
  IC90: 127 µM
[4]
  EC50: 46 µM
[5]; 0.05 mg/kg, CMX001 0.050 mg/kg
  AUC: 33.3 ng·h/mL
  Cmax: 1.51 ng/mL
[5]; 0.1 mg/kg, CMX001 0.100 mg/kg
  AUC: 125 ng·h/mL
  Cmax: 3.44 ng/mL
[5]; 0.2 mg/kg, CMX001 0.200 mg/kg
  AUC: 190 ng·h/mL
  Cmax: 5.41 ng/mL
[5]; 0.4 mg/kg, CMX001 0.400 mg/kg
  AUC: 445 ng·h/mL
  Cmax: 10.4 ng/mL
[5]; 0.6 mg/kg, CMX001 0.600 mg/kg
  AUC: 519 ng·h/mL
  Cmax: 12.2 ng/mL
[6]
  EC50: 115 µM
[7]
  peak plasma concentrations of cidofovir: 19,600 ng/mL
[8]; Human alphaherpesvirus 1, strain E-377
  EC50: 5.5 ± 6 µM
[8]; Human alphaherpesvirus 1, strain F
  EC50: 1.5 ± 0.4 µM
[8]; Human alphaherpesvirus 1, strain HL-3
  EC50: 3.6 ± 3 µM
[9]; CDV 0.01 to 0.1 μM
  cytotoxicity (total cell number): did not cause cytotoxicity at any concentration tested
[9]; CDV 0.1 to 1 μM, 4 days
  cell density and viability: did not elicit any visible changes
[10]
  EC50: > 170 µM
[11]; Human alphaherpesvirus 2, strain G
  EC50: 5.5 ± 2.1 µM
[11]; Human alphaherpesvirus 2, strain MS
  EC50: 5.1 ± 5.4 µM
[11]; Human alphaherpesvirus 2, strain SR
  EC50: 5.9 ± 5.9 µM
[12]; CDV 0.01 to 0.1 μM, listed as CDV
  reduction in JCV DNA containing cells: did not elicit any significant reduction; also recorded: did not show any effect on JCV replication
[12]; CDV, any concentration tested
  copy number of JCV genomes (qPCR): had no affect
[13]
  EC50: 15 µM
[14]
  EC50: 0.38 µM
[15]
  Cmax: BQL-
[16]
  EC50: 516 µM
[17]
  plasma concentrations of cidofovir: below 250 ng/mL
[18]
  EC50: 0.2 µM
[19]
  EC50: 27.3 µM
[20]
  EC50: 716 µM
[21]
  levels of viral transcripts: Significant reductions in levels of most viral transcripts
[22]
  AUC: 50.1 ng·h/mL
  Cmax: 5.44 ng/mL
